US7989165B2, “Tape stripping methods for analysis of skin disease and pathological skin state” (DermTech International, priority 2004, dated 2011)
Values joined by “and” are separate entries in the source; they are usually repeats but may differ in a detail not shown here. Equal values may be shown once.

Experiments:
Format in all cases: in vivo, human
Krt-10 mRNA = test: RT-PCR of keratin-10 mRNA relative to β-actin in SLS-irritated and control skin (tape and biopsy)
Excerpt: (§1) The samples analyzed in this study are those described in the protocol performed by Wong et al. (Wong, Tran et al. 2004). […] Patches were removed and equivalent skin sites were biopsied and tape stripped as described in the Examples above. As an additional control, normal skin was also biopsied and tape stripped. Samples were processed for total RNA and assayed for keratin-10, keratin-16, keratin-17 and β-actin mRNA. The keratin mRNAs were normalized to β-actin mRNA in each sample. The semi-quantitative RT-PCR assay has been previously described (Wong, Tran et al. 2004).

Krt-16 mRNA = test: RT-PCR of keratin-16 mRNA relative to β-actin in SLS-irritated and control skin (tape and biopsy); set-up: key to ΔCt,Krt-16, Tape, SLS / ΔCt,Krt-16, Biopsy, SLS: ΔCt: keratin mRNA Ct normalized to β-actin Ct in same sample
Excerpt: as §1

Krt-17 mRNA = test: RT-PCR of keratin-17 mRNA relative to β-actin in SLS-irritated and control skin (tape and biopsy); set-up: key to ΔCt,Krt-17, Tape, SLS / ΔCt,Krt-17, Biopsy, SLS: ΔCt: keratin mRNA Ct normalized to β-actin Ct in same sample; conditions: for ΔCt,Krt-17, Biopsy, SLS / ΔCt,Krt-17, Tape, SLS: 1% SLS occlusive patch 24 hours, mid-back, relative to β-actin, per subject 1-10 and Average; for ΔCt,Krt-17, Biopsy, SLS / Fold Increase Krt-17/βactin mRNA ratio vs. normal, Biopsy, SLS: biopsy RNA; for ΔCt,Krt-17, Biopsy, SLS / ΔCt,Krt-17, Tape, SLS / Fold Increase Krt-17/βactin mRNA ratio vs. normal, Biopsy, SLS / Fold Increase Krt-17/βactin mRNA ratio vs. normal, Tape, SLS: sulfate; for ΔCt,Krt-17, Tape, SLS / Fold Increase Krt-17/βactin mRNA ratio vs. normal, Tape, SLS: tape-stripped RNA; for Fold Increase Krt-17/βactin mRNA ratio vs. normal, Biopsy, SLS / Fold Increase Krt-17/βactin mRNA ratio vs. normal, Tape, SLS: 1% SLS patch 24 hours vs untreated skin, per subject and Average
Excerpt: as §1

**Q.** What does the source list for `CCCCCCCCCCCCOS(=O)(=O)[O-].[Na+]` [SLS, sodium lauryl sulfate]?
**A.** Fold Increase Krt-10/β-actin mRNA vs. normal, Tape, SLS (Krt-10 mRNA; 1% SLS patch 24 hours vs untreated skin, tape-stripped RNA, per subject and Average, sulfate, mean): 0.06 fold; average decrease in K10 expression (Krt-10 mRNA; SLS treatment vs untreated skin, tape and biopsy virtually identical): ~20 fold; ΔCt,Krt-16, Biopsy, SLS (Krt-16 mRNA; 1% SLS occlusive patch 24 hours, mid-back, biopsy RNA, relative to β-actin, per subject 1-10 and Average, sulfate): 0.97 and −2.43 and −2.21 and 1.41 and −1.12 and −1.75 and −2.01 and −1.79 and 0.74 and −0.32; ΔCt,Krt-16, Tape, SLS (Krt-16 mRNA; 1% SLS occlusive patch 24 hours, mid-back, tape-stripped RNA, relative to β-actin, per subject 1-10 and Average, sulfate): −4.51 and 3.04 and 3.96 and −2.87 and 0.53 (2×) and 3.1 and 4.32 and 2.87 and −0.97; Fold Increase Krt-16/actin mRNA ratio vs. normal, Biopsy, SLS (Krt-16 mRNA; 1% SLS patch 24 hours vs untreated skin, biopsy RNA, per subject and Average, sulfate): 14.73 fold and 76.61 fold and 55.14 fold and 18.4 fold and 30.85 fold and 113.69 fold and 108.78 fold and 82.98 fold and 8.57 fold and 24.78 fold; Fold Increase Krt-16/actin mRNA ratio vs. normal, Tape, SLS (Krt-16 mRNA; 1% SLS patch 24 hours vs untreated skin, tape-stripped RNA, per subject and Average, sulfate): 1.25 fold and 0.03 fold and 0.01 fold and 0.2 fold and 0.02 fold and 0.04 fold and 0.17 fold; average decrease in K16 expression, tape (Krt-16 mRNA; SLS-treated skin vs untreated): 9 fold; average fold-increase of K16 mRNA expression, biopsy (Krt-16 mRNA; SLS-treated skin vs untreated): 39 fold; ΔCt,Krt-17, Biopsy, SLS (Krt-17 mRNA): 0.71 and −2.29 and −2.5 and 1.13 and −1.97 and −1.63 and −2.91 and −1.75 and −1.86 and −0.11; ΔCt,Krt-17, Biopsy, SLS (Krt-17 mRNA; mean): −1.32; ΔCt,Krt-17, Tape, SLS (Krt-17 mRNA): −5.12 and 1.64 and 1.5 and −4.87 and −1.79 and 1.11 and −1.84 and 1.38 and 0.21 and −2.12; ΔCt,Krt-17, Tape, SLS (Krt-17 mRNA; mean): −0.99; Fold Increase Krt-17/βactin mRNA ratio vs. normal, Biopsy, SLS (Krt-17 mRNA): 13.31 fold and 94.54 fold and 44.95 fold and 4.51 fold and 27.19 fold and 15.44 fold and 459.45 fold and 195.94 fold and 48.35 fold and 41.13 fold; Fold Increase Krt-17/βactin mRNA ratio vs. normal, Biopsy, SLS (Krt-17 mRNA; mean): 42.52 fold; Fold Increase Krt-17/βactin mRNA ratio vs. normal, Tape, SLS (Krt-17 mRNA): 1.67 fold and 0.02 fold (2×) and 0.01 fold and 0.17 fold and 0.05 fold and 0.04 fold and 0.5 fold; Fold Increase Krt-17/βactin mRNA ratio vs. normal, Tape, SLS (Krt-17 mRNA; mean): 0.12 fold; average fold-increase of K17, biopsy (Krt-17 mRNA; SLS-treated skin vs untreated): 42 fold; decrease of K17/actin mRNA ratio, tape (Krt-17 mRNA; SLS-treated skin vs untreated): 8 fold
